Test results from PubChem BioAssay (NCI).
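Exposure lasted 48 hours, with cells grown in 96-well plates and compounds tested at five concentrations. GI50 marks 50% less growth. Definition used: TGI = concentration required for complete inhibition of growth.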

Key:
Assay in all cases: NCI anticancer screen, dose series, 48 h
UACC-257 melanoma = tested on: UACC-257 melanoma
HCT-116 colon = tested on: HCT-116 colon
CAKI-1 renal = tested on: CAKI-1 renal
HT29 colon = tested on: HT29 colon
SNB-19 CNS = tested on: SNB-19 CNS
LOX IMVI melanoma = tested on: LOX IMVI melanoma
HCT-15 colon = tested on: HCT-15 colon
UACC-62 melanoma = tested on: UACC-62 melanoma
SNB-75 CNS = tested on: SNB-75 CNS
SF-539 CNS = tested on: SF-539 CNS
DU-145 prostate = tested on: DU-145 prostate
OVCAR-5 ovarian = tested on: OVCAR-5 ovarian
BT-549 breast = tested on: BT-549 breast
NCI-H23 lung = tested on: NCI-H23 lung
MDA-MB-231 breast = tested on: MDA-MB-231 breast
MDA-MB-435 = tested on: MDA-MB-435
TK-10 renal = tested on: TK-10 renal
SW-620 colon = tested on: SW-620 colon
MOLT-4 leukemia = tested on: MOLT-4 leukemia
HS 578T breast = tested on: HS 578T breast
NCI-H226 lung = tested on: NCI-H226 lung
ACHN renal = tested on: ACHN renal
IGROV1 ovarian = tested on: IGROV1 ovarian
786-0 renal = tested on: 786-0 renal
SK-MEL-5 melanoma = tested on: SK-MEL-5 melanoma
PC-3 prostate = tested on: PC-3 prostate
M14 melanoma = tested on: M14 melanoma
T-47D breast = tested on: T-47D breast
HCC-2998 colon = tested on: HCC-2998 colon
A549 NSCLC = tested on: A549 NSCLC
K-562 leukemia = tested on: K-562 leukemia
SR leukemia = tested on: SR leukemia
A498 renal = tested on: A498 renal
HL-60(TB) leukemia = tested on: HL-60(TB) leukemia
HOP-92 NSCLC = tested on: HOP-92 NSCLC
UO-31 renal = tested on: UO-31 renal
RPMI-8226 leukemia = tested on: RPMI-8226 leukemia
SN12C renal = tested on: SN12C renal
NCI/ADR-RES ovarian = tested on: NCI/ADR-RES ovarian
KM12 colon = tested on: KM12 colon
SF-295 CNS = tested on: SF-295 CNS
SF-268 CNS = tested on: SF-268 CNS
U251 CNS = tested on: U251 CNS
COLO 205 colon = tested on: COLO 205 colon
MALME-3M melanoma = tested on: MALME-3M melanoma
NCI-H522 lung = tested on: NCI-H522 lung
HOP-62 NSCLC = tested on: HOP-62 NSCLC
SK-OV-3 ovarian = tested on: SK-OV-3 ovarian
CCRF-CEM leukemia = tested on: CCRF-CEM leukemia
OVCAR-8 ovarian = tested on: OVCAR-8 ovarian
OVCAR-3 ovarian = tested on: OVCAR-3 ovarian
OVCAR-4 ovarian = tested on: OVCAR-4 ovarian
SK-MEL-28 melanoma = tested on: SK-MEL-28 melanoma
MCF7 breast = tested on: MCF7 breast
SK-MEL-2 melanoma = tested on: SK-MEL-2 melanoma
RXF 393 renal = tested on: RXF 393 renal
NCI-H460 lung = tested on: NCI-H460 lung

CCN(Cc1ccccc1OC)c1ccc(CO)c(Cl)c1
GI50 (UACC-257 melanoma): 0.162 µM | TGI (UACC-257 melanoma): 0.498 µM | GI50 (HCT-116 colon): 0.215 µM | TGI (HCT-116 colon): 8.77 µM | GI50 (CAKI-1 renal): 5.62 µM | TGI (CAKI-1 renal): 23.9 µM | GI50 (HT29 colon): 4.7 µM | TGI (HT29 colon): 18 µM | GI50 (SNB-19 CNS): 13.7 µM | TGI (SNB-19 CNS): 31.8 µM | GI50 (LOX IMVI melanoma): 15.1 µM | TGI (LOX IMVI melanoma): 29.6 µM | GI50 (HCT-15 colon): 7.11 µM | TGI (HCT-15 colon): 23.6 µM | GI50 (UACC-62 melanoma): 0.223 µM | TGI (UACC-62 melanoma): 1.79 µM | GI50 (SNB-75 CNS): 9.47 µM | TGI (SNB-75 CNS): 26.5 µM | GI50 (SF-539 CNS): 14.4 µM | TGI (SF-539 CNS): 27.8 µM | GI50 (DU-145 prostate): 15.8 µM | TGI (DU-145 prostate): 33.4 µM | GI50 (OVCAR-5 ovarian): 0.123 µM | TGI (OVCAR-5 ovarian): 0.416 µM | GI50 (BT-549 breast): 12.8 µM | TGI (BT-549 breast): 26 µM | GI50 (NCI-H23 lung): 8.96 µM | TGI (NCI-H23 lung): 29.9 µM | GI50 (MDA-MB-231 breast): 11.1 µM | TGI (MDA-MB-231 breast): 24.9 µM | GI50 (MDA-MB-435): 3.06 µM | TGI (MDA-MB-435): 12.4 µM | GI50 (TK-10 renal): 0.0512 µM | TGI (TK-10 renal): 0.372 µM | GI50 (SW-620 colon): 2.33 µM | TGI (SW-620 colon): 17.5 µM | GI50 (MOLT-4 leukemia): 18.1 µM | TGI (MOLT-4 leukemia): 46.2 µM | GI50 (HS 578T breast): 13.4 µM | TGI (HS 578T breast): 37.2 µM | GI50 (NCI-H226 lung): 0.0487 µM | TGI (NCI-H226 lung): 0.179 µM | GI50 (ACHN renal): 14.1 µM | TGI (ACHN renal): 27.4 µM | GI50 (IGROV1 ovarian): 0.0502 µM | TGI (IGROV1 ovarian): 0.337 µM | GI50 (786-0 renal): 13 µM | TGI (786-0 renal): 26.2 µM | GI50 (SK-MEL-5 melanoma): 6.61 µM | TGI (SK-MEL-5 melanoma): 19.9 µM | GI50 (PC-3 prostate): 12.3 µM | TGI (PC-3 prostate): 27.9 µM | GI50 (M14 melanoma): 12.4 µM | TGI (M14 melanoma): 25.5 µM | GI50 (T-47D breast): 0.091 µM | TGI (T-47D breast): 0.685 µM | GI50 (HCC-2998 colon): 10.7 µM | TGI (HCC-2998 colon): 24.5 µM | GI50 (A549 NSCLC): 4.26 µM | TGI (A549 NSCLC): 19.8 µM | GI50 (K-562 leukemia): 2.16 µM | TGI (K-562 leukemia): 12.1 µM | GI50 (SR leukemia): 8.53 µM | TGI (SR leukemia): 40.9 µM | GI50 (A498 renal): 0.0454 µM | TGI (A498 renal): 0.13 µM | GI50 (HL-60(TB) leukemia): 11.8 µM | TGI (HL-60(TB) leukemia): 34.9 µM | GI50 (HOP-92 NSCLC): 1.66 µM | TGI (HOP-92 NSCLC): 8.51 µM | GI50 (UO-31 renal): 11.5 µM | TGI (UO-31 renal): 24.7 µM | GI50 (RPMI-8226 leukemia): 2.67 µM | TGI (RPMI-8226 leukemia): 21.5 µM | GI50 (SN12C renal): 11.1 µM | TGI (SN12C renal): 23.5 µM | GI50 (NCI/ADR-RES ovarian): 9.22 µM | TGI (NCI/ADR-RES ovarian): 26.9 µM | GI50 (KM12 colon): 11 µM | TGI (KM12 colon): 25.8 µM | GI50 (SF-295 CNS): 2.71 µM | TGI (SF-295 CNS): 15.3 µM | GI50 (SF-268 CNS): 15.1 µM | TGI (SF-268 CNS): 30.7 µM | GI50 (U251 CNS): 1.38 µM | TGI (U251 CNS): 14.8 µM | GI50 (COLO 205 colon): 4.81 µM | TGI (COLO 205 colon): 14.4 µM | GI50 (MALME-3M melanoma): 12.9 µM | TGI (MALME-3M melanoma): 27.5 µM | GI50 (NCI-H522 lung): 12 µM | TGI (NCI-H522 lung): 26.1 µM | GI50 (HOP-62 NSCLC): 3.16 µM | TGI (HOP-62 NSCLC): 16.4 µM | GI50 (SK-OV-3 ovarian): 7.15 µM | TGI (SK-OV-3 ovarian): 20.9 µM | GI50 (CCRF-CEM leukemia): 19 µM | TGI (CCRF-CEM leukemia): 60.3 µM | GI50 (OVCAR-8 ovarian): 12.4 µM | TGI (OVCAR-8 ovarian): 31.8 µM | GI50 (OVCAR-3 ovarian): 0.767 µM | TGI (OVCAR-3 ovarian): 4.48 µM | GI50 (OVCAR-4 ovarian): 0.518 µM | TGI (OVCAR-4 ovarian): 10.3 µM | GI50 (SK-MEL-28 melanoma): 10.3 µM | TGI (SK-MEL-28 melanoma): 24.8 µM | GI50 (MCF7 breast): 0.566 µM | TGI (MCF7 breast): 12.3 µM | GI50 (SK-MEL-2 melanoma): 2.11 µM | TGI (SK-MEL-2 melanoma): 10.9 µM | GI50 (RXF 393 renal): 7.61 µM | TGI (RXF 393 renal): 24.7 µM | GI50 (NCI-H460 lung): 0.511 µM | TGI (NCI-H460 lung): 11.6 µM
